Laboratory results from patent US8975417B2, “Pyrazolopyrrolidine derivatives and their use in the treatment of disease” (Novartis AG, priority 2013, dated 2015).

Experiments:
Format in all cases: cell-based
[1] = molecular target: nuclear BRD4-NUT foci in HCC2494 NUT midline carcinoma cells (Homo sapiens (Human), UniProt O60885+Q86Y26); experiment: Nut-foci formation assay; conditions: 24 hours, read-out: HCS Brd4-NUT IC50
Summary of the method: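 HCC2494 cells carrying BRD4-NUT, treated 24 h at 37 °C with 3-fold dilutions from 10 μM. Fixed and stained with anti-NUT antibody, imaged automatically to count nuclear foci per nucleus.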

MV-4-11 cells = experiment: Cell growth inhibition assay (CellTiter-Glo), MV-4-11; conditions: Homo sapiens, MV4-11, read-out: MV-4-11 TGI
Summary of the method: (§1)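 Dose-response over 3-fold dilutions from 10 μM; 0.1% DMSO control. Endpoint: CellTiter-Glo ATP signal, background-subtracted and day 0-corrected.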

THP-1 cells = experiment: Cell growth inhibition assay (CellTiter-Glo), THP-1; conditions: Homo sapiens, read-out: THP-1 TGI
Summary of the method: as §1

| SMILES | IC50 [1] [nM] | IC (total growth inhibition) (MV-4-11 cells) [µM] | IC (total growth inhibition) (THP-1 cells) [µM] |
| --- | --- | --- | --- |
| CCOc1c2c(nn1C)C(=O)N(c1cc(C)c(=O)n(C)c1)C2c1ccc(Cl)cc1 (stereo not drawn) [Example 76, 4-(4-chlorophenyl)-5-(1,5-dimethyl-6-oxo-1,6-dihydropyridin-3-yl)-3-ethoxy-2-methyl-4,5-dihydropyrrolo[3,4-c]pyrazol-6(2H)-one] | 106 | 0.107 | 0.3 |
| Cc1nn(C2CC2)c2c1[C@@H](c1ccc(Cl)cc1)N(c1cc(C)c(=O)n(C)c1)C2=O [Example 49, (R)-4-(4-chlorophenyl)-1-cyclopropyl-5-(1,5-dimethyl-6-oxo-1,6-dihydropyridin-3-yl)-3-methyl-4,5-dihydropyrrolo[3,4-c]pyrazol-6(1H)-one] | 34.1 | 0.0394 | 0.0603 |
| Cc1nn(-c2ccnn2C)c2c1[C@@H](c1ccc(Cl)cc1)N(c1cc(C)c3nnc(C)n3c1)C2=O [Example 125, (R)-4-(4-chlorophenyl)-5-(3,8-dimethyl-[1,2,4]triazolo[4,3-a]pyridin-6-yl)-3-methyl-1-(1-methyl-1H-pyrazol-5-yl)-4,5-dihydropyrrolo[3,4-c]pyrazol-6(1H)-one] | 32.3 | 0.0399 | 0.0473 |
| Cc1ncccc1-n1nc(C)c2c1C(=O)N(c1cc(C)c(=O)n(C)c1)C2c1ccc(Cl)cc1 (stereo not drawn) [Example 82, 4-(4-chlorophenyl)-5-(1,5-dimethyl-6-oxo-1,6-dihydropyridin-3-yl)-3-methyl-1-(2-methylpyridin-3-yl)-4,5-dihydropyrrolo[3,4-c]pyrazol-6(1H)-one] | 29.4 | 0.139 | 0.406 |
| Cc1ncccc1-n1nc2c(c1C)C(c1ccc(Cl)cc1)N(c1cc(C)c(=O)n(C)c1)C2=O (stereo not drawn) [Example 81, 4-(4-chlorophenyl)-5-(1,5-dimethyl-6-oxo-1,6-dihydropyridin-3-yl)-3-methyl-2-(2-methylpyridin-3-yl)-4,5-dihydropyrrolo[3,4-c]pyrazol-6(2H)-one] | 74.3 | 0.13 | 0.422 |
| Cc1nn(-c2cncn2C)c2c1C(c1ccc(Cl)cc1)N(c1cc(C)c(=O)n(C)c1)C2=O (stereo not drawn) [Example 83, 4-(4-chlorophenyl)-5-(1,5-dimethyl-6-oxo-1,6-dihydropyridin-3-yl)-3-methyl-1-(1-methyl-1H-imidazol-5-yl)-4,5-dihydropyrrolo[3,4-c]pyrazol-6(1H)-one] | 96.8 | 0.145 | 0.396 |
| CCc1nn(CCOC)c2c1C(c1ccc(Cl)cc1)N(c1cc(C)c3nnc(C)n3c1)C2=O (stereo not drawn) [Example 87, 4-(4-chlorophenyl)-5-(3,8-dimethyl-[1,2,4]triazolo[4,3-a]pyridin-6-yl)-3-ethyl-1-(2-methoxyethyl)-4,5-dihydropyrrolo[3,4-c]pyrazol-6(1H)-one] | 17.3 | 0.0288 | 0.0598 |
| COc1ncc(-n2nc(C)c3c2C(=O)N(c2cc(C)c(=O)n(C)c2)[C@H]3c2ccc(Cl)cc2)c(OC)n1 [Example 99, (S)-4-(4-chlorophenyl)-1-(2,4-dimethoxypyrimidin-5-yl)-5-(1,5-dimethyl-6-oxo-1,6-dihydropyridin-3-yl)-3-methyl-4,5-dihydropyrrolo[3,4-c]pyrazol-6(1H)-one] | 8860 | 4.31 | > 10 |
| Cc1nn(-c2ccnn2C)c2c1C(c1ccc(Cl)cc1)N(c1cc(C)c3nnc(C)n3c1)C2=O (stereo not drawn) [Example 90, 4-(4-chlorophenyl)-5-(3,8-dimethyl-[1,2,4]triazolo[4,3-a]pyridin-6-yl)-3-methyl-1-(1-methyl-1H-pyrazol-5-yl)-4,5-dihydropyrrolo[3,4-c]pyrazol-6(1H)-one] | 45 | 0.0436 | 0.115 |
| Cc1nn(C(=O)N(C)C)c2c1C(c1ccc(Cl)cc1)N(c1cc(C)c(=O)n(C)c1)C2=O (stereo not drawn) [Example 142, 4-(4-chlorophenyl)-5-(1,5-dimethyl-6-oxo-1,6-dihydropyridin-3-yl)-N,N,3-trimethyl-6-oxo-5,6-dihydropyrrolo[3,4-c]pyrazole-1(4H)-carboxamide] | 149 | 0.121 | 0.448 |
| Cc1nn(C2CC2)c2c1[C@@H](c1ccc(Cl)cc1)N(c1cc(Cl)c(=O)n(C)c1)C2=O [Example 51, (R)-5-(5-chloro-1-methyl-6-oxo-1,6-dihydropyridin-3-yl)-4-(4-chlorophenyl)-1-cyclopropyl-3-methyl-4,5-dihydropyrrolo[3,4-c]pyrazol-6(1H)-one] | 76.4 | 0.0883 | 0.126 |

Second part, led by results:

| IC50 [1] [nM] | SMILES | IC (total growth inhibition) (MV-4-11 cells) [µM] | IC (total growth inhibition) (THP-1 cells) [µM] |
| --- | --- | --- | --- |
| 103 | Cc1cc(N2C(=O)c3nn(C4CN(C)C4)c(C)c3C2c2ccc(Cl)cc2)cn2c(C)nnc12 (stereo not drawn) [Example 158, 4-(4-chlorophenyl)-5-(3,8-dimethyl-[1,2,4]triazolo[4,3-a]pyridin-6-yl)-3-methyl-2-(1-methylazetidin-3-yl)-4,5-dihydropyrrolo[3,4-c]pyrazol-6(2H)-one] | 0.045 | 0.298 |
| 24.3 | Cc1cc(N2C(=O)c3c(c(C4CC4)nn3-c3ccnn3C)C2c2ccc(Cl)cc2)cn2c(C)nnc12 (stereo not drawn) [Example 117, 4-(4-chlorophenyl)-3-cyclopropyl-5-(3,8-dimethyl-[1,2,4]triazolo[4,3-a]pyridin-6-yl)-1-(1-methyl-1H-pyrazol-5-yl)-4,5-dihydropyrrolo[3,4-c]pyrazol-6(1H)-one] | 0.0391 | 0.0671 |
| > 10000 | COc1ncccc1-n1nc(C)c2c1C(=O)N(c1cc(C)c(=O)n(C)c1)[C@H]2c1ccc(Cl)cc1 [Example 127, (S)-4-(4-chlorophenyl)-5-(1,5-dimethyl-6-oxo-1,6-dihydropyridin-3-yl)-1-(2-methoxypyridin-3-yl)-3-methyl-4,5-dihydropyrrolo[3,4-c]pyrazol-6(1H)-one] | 4.49 | > 10 |
| 43.8 | COc1ncccc1-n1nc(C)c2c1C(=O)N(c1cc(C)c3nnn(C)c3n1)C2c1ccc(Cl)cc1 (stereo not drawn) [Example 109, 4-(4-chlorophenyl)-5-(3,7-dimethyl-3H-[1,2,3]triazolo[4,5-b]pyridin-5-yl)-1-(2-methoxypyridin-3-yl)-3-methyl-4,5-dihydropyrrolo[3,4-c]pyrazol-6(1H)-one] | 0.0381 | 0.0904 |
| 27 | CCn1nc(C)c2c1C(=O)N(c1cc(C)c3nnc(C)n3c1)C2c1ccc(Cl)cc1 (stereo not drawn) [Example 116, 4-(4-chlorophenyl)-5-(3,8-dimethyl-[1,2,4]triazolo[4,3-a]pyridin-6-yl)-1-ethyl-3-methyl-4,5-dihydropyrrolo[3,4-c]pyrazol-6(1H)-one] | 0.0301 | 0.0354 |
| 150 | CC(=O)N1CC(n2nc(C)c3c2C(=O)N(c2cc(C)c(=O)n(C)c2)C3c2ccc(Cl)cc2)C1 (stereo not drawn) [Example 153, 1-(1-acetylazetidin-3-yl)-4-(4-chlorophenyl)-5-(1,5-dimethyl-6-oxo-1,6-dihydropyridin-3-yl)-3-methyl-4,5-dihydropyrrolo[3,4-c]pyrazol-6(1H)-one] | 0.161 | 0.515 |
| 208 | CC(=O)N1CC(n2nc(C)c3c2C(=O)N(c2cc(C)c4nnc(C)n4c2)C3c2ccc(Cl)cc2)C1 (stereo not drawn) [Example 154, 1-(1-acetylazetidin-3-yl)-4-(4-chlorophenyl)-5-(3,8-dimethyl-[1,2,4]triazolo[4,3-a]pyridin-6-yl)-3-methyl-4,5-dihydropyrrolo[3,4-c]pyrazol-6(1H)-one] | 0.112 | 0.538 |
| 6110 | Cc1nn(-c2ccnn2C)c2c1[C@H](c1ccc(Cl)cc1)N(c1cc(C)c(=O)n(C)c1)C2=O [Example 121, (S)-4-(4-chlorophenyl)-5-(1,5-dimethyl-6-oxo-1,6-dihydropyridin-3-yl)-3-methyl-1-(1-methyl-1H-pyrazol-5-yl)-4,5-dihydropyrrolo[3,4-c]pyrazol-6(1H)-one] | 1.23 | 5.03 |
| 53.3 | COc1ncccc1-n1nc(C)c2c1C(=O)N(c1cc(C)c(=O)n(C)c1)[C@@H]2c1ccc(Cl)cc1 [Example 128, (R)-4-(4-chlorophenyl)-5-(1,5-dimethyl-6-oxo-1,6-dihydropyridin-3-yl)-1-(2-methoxypyridin-3-yl)-3-methyl-4,5-dihydropyrrolo[3,4-c]pyrazol-6(1H)-one] | 0.0734 | 0.107 |
